From ChEMBL document CHEMBL4680144, “N-thiadiazole-4-hydroxy-2-quinolone-3-carboxamides bearing heteroaromatic rings as novel antibacterial agents: Design, synthesis, biological evaluation and target identification” (Eur J Med Chem, 2020)
Converted amounts (≈) assume the structure as drawn. The source made the active and inactive calls. The rule behind the calls is not given here.

Experiments:
Staphylococcus aureus [1] = experiment: Antibacterial activity against methicillin-resistant Staphylococcus aureus clinical isolate 15-2 assessed as inhibition of bacterial growth incubated for 18 to 24 hrs by broth microdilution method; assay type: functional; conditions: time 18-24 hrs
Staphylococcus aureus [2] = experiment: Antibacterial activity against methicillin-resistant Staphylococcus aureus clinical isolate 15-3 assessed as inhibition of bacterial growth incubated for 18 to 24 hrs by broth microdilution method; assay type: functional; conditions: time 18-24 hrs
Staphylococcus aureus [3] = experiment: Antibacterial activity against methicillin-resistant Staphylococcus aureus clinical isolate 15-6 assessed as inhibition of bacterial growth incubated for 18 to 24 hrs by broth microdilution method; assay type: functional; conditions: time 18-24 hrs
Staphylococcus aureus [4] = experiment: Antibacterial activity against methicillin-resistant Staphylococcus aureus clinical isolate 15-7 assessed as inhibition of bacterial growth incubated for 18 to 24 hrs by broth microdilution method; assay type: functional; conditions: time 18-24 hrs
Staphylococcus aureus [5] = experiment: Antibacterial activity against methicillin-resistant Staphylococcus aureus clinical isolate 15-8 assessed as inhibition of bacterial growth incubated for 18 to 24 hrs by broth microdilution method; assay type: functional; conditions: time 18-24 hrs
Staphylococcus aureus [6] = experiment: Antibacterial activity against methicillin resistant and vancomycin-intermediate sensitive Staphylococcus aureus ATCC 700699 assessed as inhibition of bacterial growth incubated for 18 to 24 hrs by broth microdilution method; assay type: functional; conditions: time 18-24 hrs
Staphylococcus aureus [7] = experiment: Antibacterial activity against methicillin resistant and vancomycin-intermediate sensitive Staphylococcus aureus ATCC 700788 assessed as inhibition of bacterial growth incubated for 18 to 24 hrs by broth microdilution method; assay type: functional; conditions: time 18-24 hrs
[8] = tested on: Staphylococcus epidermidis; experiment: Antibacterial activity against methicillin-sensitive Staphylococcus epidermidis clinical isolate 15-4 assessed as inhibition of bacterial growth incubated for 18 to 24 hrs by broth microdilution method; assay type: functional; conditions: time 18-24 hrs
[9] = tested on: Staphylococcus epidermidis; experiment: Antibacterial activity against methicillin-resistant Staphylococcus epidermidis clinical isolate 15-2 assessed as inhibition of bacterial growth incubated for 18 to 24 hrs by broth microdilution method; assay type: functional; conditions: time 18-24 hrs
[10] = tested on: Staphylococcus epidermidis; experiment: Antibacterial activity against methicillin-resistant Staphylococcus epidermidis clinical isolate 15-3 assessed as inhibition of bacterial growth incubated for 18 to 24 hrs by broth microdilution method; assay type: functional; conditions: time 18-24 hrs
Enterococcus faecium [11] = experiment: Antibacterial activity against Enterococcus faecium clinical isolate 15-2 assessed as inhibition of bacterial growth incubated for 18 to 24 hrs by broth microdilution method; assay type: functional; conditions: time 18-24 hrs
Enterococcus faecalis [12] = experiment: Antibacterial activity against vancomycin-resistant Enterococcus faecalis ATCC 700802 assessed as inhibition of bacterial growth incubated for 18 to 24 hrs by broth microdilution method; assay type: functional; conditions: time 18-24 hrs
Enterococcus faecalis [13] = experiment: Antibacterial activity against vancomycin-resistant Enterococcus faecalis ATCC 51575 assessed as inhibition of bacterial growth incubated for 18 to 24 hrs by broth microdilution method; assay type: functional; conditions: time 18-24 hrs
[14] = Selectivity index, ratio of IC50 for human HUVEC cells to MIC for methicillin-resistant Staphylococcus aureus; assay type: toxicity
Staphylococcus aureus [15] = experiment: Bactericidal activity against methicillin-resistant Staphylococcus aureus clinical isolate 15-1 assessed as reduction in log10CFU at 4 times MIC measured over 24 hrs by time kill kinetics analysis; assay type: functional
Staphylococcus aureus [16] = experiment: Bactericidal activity against methicillin-resistant Staphylococcus aureus clinical isolate 15-1 assessed as reduction in log10CFU at 8 times MIC measured over 24 hrs by time kill kinetics analysis; assay type: functional
[17] = Metabolic stability in mouse liver microsomes assessed as intrinsic clearance preincubated for 5 mins followed by NADPH addition and measured up to 60 mins by LC-MS/MS analysis; assay type: ADME, Microsome; conditions: time 65 min, read-out: CLH
[18] = AUCinfinity in Kunming mouse at 10 mg/kg, po by HPLC analysis; assay type: ADME, organism-based; design: time infinity, route oral, dose 10 mg/kg; conditions: in vivo
[19] = MRTlast in Kunming mouse at 10 mg/kg, po measured upto 72 hrs by HPLC analysis; assay type: ADME, organism-based; conditions: in vivo
[20] = Half life in Kunming mouse at 10 mg/kg, po measured upto 72 hrs by HPLC analysis; assay type: ADME, organism-based; conditions: in vivo
[21] = Cmax in Kunming mouse at 10 mg/kg, po measured upto 72 hrs by HPLC analysis; assay type: ADME, organism-based; design: route oral, dose 10 mg/kg, time <=72; conditions: in vivo
Staphylococcus aureus [22] = experiment: In vivo antibacterial activity against methicillin resistant Staphylococcus aureus clinical isolate 15-1 infected in kunming mouse assessed as animal survival rate at 9 mg/kg, po administered 6 hrs prior to bacterial infection and at 0 and 6 hrs post infection and measured for 7 days (reference value: 12.5 %); assay type: functional; conditions: 15-1, po, 168 h, time 7 day
[23] = Inhibition of Staphylococcus aureus Gyrase B using linear pBR322 DNA as substrate incubated for 30 mins in presence of ATP by ADP-Glo assay
Staphylococcus aureus [24] = experiment: Inhibition of Staphylococcus aureus Gyrase B assessed as reduction in supercoiled pBR322 DNA production incubated for 30 mins by ethidium bromide staining based agarose gel electrophoresis method; conditions: dose 0.1-100 µM
Staphylococcus aureus [25] = experiment: Bactericidal activity against methicillin-resistant Staphylococcus aureus clinical isolate 15-1 assessed as reduction in log10CFU at 1 to 2 times MIC measured after 24 hrs by time kill kinetics analysis; assay type: functional, organism-based
[26] = Toxicity in Kunming mouse assessed as death at 30 mg/kg, po; assay type: organism-based; conditions: in vivo
Staphylococcus aureus [27] = experiment: Potency index, ratio of vancomycin MIC to test compound MIC for antibacterial activity against methicillin-resistant Staphylococcus aureus clinical isolate 15-6 assessed as inhibition of bacterial growth incubated for 18 to 24 hrs by broth microdilution method; assay type: functional; conditions: time 18-24 hrs
Staphylococcus aureus [28] = experiment: Potency index, ratio of vancomycin MIC to test compound MIC for antibacterial activity against methicillin resistant and vancomycin-intermediate sensitive Staphylococcus aureus ATCC 700788 assessed as inhibition of bacterial growth incubated for 18 to 24 hrs by broth microdilution method; assay type: functional; conditions: time 18-24 hrs
Enterococcus faecium [29] = experiment: Potency index, ratio of vancomycin MIC to test compound MIC for antibacterial activity against Enterococcus faecium clinical isolate 15-1 assessed as inhibition of bacterial growth incubated for 18 to 24 hrs by broth microdilution method; assay type: functional; conditions: time 18-24 hrs

Compound `CCn1c(=O)c(C(=O)Nc2nnc(-c3nccs3)s2)c(O)c2ccccc21` has an MIC (Staphylococcus aureus [1]) of 0.5 µg/mL (≈ 1.25 µM), an MIC (Staphylococcus aureus [2]) of 0.5 µg/mL (≈ 1.25 µM) and an MIC (Staphylococcus aureus [3]) of 0.5 µg/mL (≈ 1.25 µM). It also gave an MIC (Staphylococcus aureus [4]) of 0.5 µg/mL (≈ 1.25 µM), an MIC (Staphylococcus aureus [5]) of 0.5 µg/mL (≈ 1.25 µM) and an MIC (Staphylococcus aureus [6]) of 0.5 µg/mL (≈ 1.25 µM). It also gave an MIC (Staphylococcus aureus [7]) of 0.5 µg/mL (≈ 1.25 µM), an MIC [8] of 0.5 µg/mL (≈ 1.25 µM) and an MIC [9] of 0.5 µg/mL (≈ 1.25 µM). For the same compound, the MIC [10] was 0.5 µg/mL (≈ 1.25 µM), the MIC (Enterococcus faecium [11]) was 1 µg/mL (≈ 2.5 µM) and the MIC (Enterococcus faecalis [12]) was 0.5 µg/mL (≈ 1.25 µM). It also gave an MIC (Enterococcus faecalis [13]) of 0.5 µg/mL (≈ 1.25 µM), a selectivity ratio [14] of 77.6 and an Activity (Staphylococcus aureus [15]) greater than 3 log10CFU/ml. It also gave an Activity (Staphylococcus aureus [16]) of 3 log10CFU/ml, a microsomal CLint [17] of 38.9 µL/min/mg and an AUC(0-inf) [18] of 2620 ng·h/mL. The MRT last at 72 h [19] was 2.7 h, the half-life [20] was 2.3 h and the Cmax [21] was 827 ng/mL. The survival at 9 mg/kg (Staphylococcus aureus [22]) was 87.5%, the IC50 [23] was 150 nM and the inhibition (Staphylococcus aureus [24]) was “Dose-dependent effect”. For the same compound, the Activity (Staphylococcus aureus [25]) was “Active”, the Activity [26] was “Non-Toxic” and the Ratio (Staphylococcus aureus [27]) was 2. It also gave a Ratio (Staphylococcus aureus [28]) of 2 and a Ratio (Enterococcus faecium [29]) of 2.
